From ChEMBL document CHEMBL5244275, “Geminal Diheteroatomic Motifs: Some Applications of Acetals, Ketals, and Their Sulfur and Nitrogen Homologues in Medicinal Chemistry and Drug Design” (J Med Chem, 2021)
Values after ≈ are worked out from the molar mass of the structure shown.

What was measured:
[1] = Stability of the compound assessed as acid hydrolysis by measuring half-life; assay type: physicochemical
[2] = target: Hepatitis C virus serine protease, NS3/NS4A (Hepatitis C virus, UniProt A3EZI9+D2K2A8); assay: Inhibition of Hepatitis C virus NS4A-NS3 protease by continuous assay; assay type: protein-complex assay, Hepacivirus hominis
[3] = Drug concentration in rat plasma at 10 mg/kg, po measured after 90 mins; assay type: ADME, organism-based
MAP kinase p38 = MAP kinase p38 (Homo sapiens, UniProt O15264+Q15759+Q16539+P53778); assay: Inhibition of p38-MAPK (unknown origin); assay type: protein assay
[4] = Oral bioavailability in rat; assay type: ADME, organism-based; details: in vivo
Mus musculus [5] = assay: Antiinflammatory activity in LPS-induced Balb/c mouse model assessed as reduction in TNF-alpha release administered orally for 30 mins followed by LPS-stimulation and measured after 90 mins by ELISA analysis; assay type: functional; details: 2 h, route po, time 120 min
[6] = Antiplasmodial activity against Plasmodium berghei NK 173 infected in ICR (CD-1) mouse assessed as inhibition of parasite growth administered intraperitoneally for four days; details: NK 173, 96 h
[7] = Stability of the compound at pH 2 assessed as half-life; assay type: physicochemical; details: buffer
[8] = test system: Human immunodeficiency virus 1; assay: Antiviral activity against HIV-1 RF; assay type: functional, organism-based; details: Human immunodeficiency virus 1, RF
[9] = test system: Human immunodeficiency virus 1; assay: microbe, parasite or virus in culture; details: Human immunodeficiency virus 1, LAV
Substance-P receptor = Substance-P receptor (Homo sapiens, UniProt P25103); assay: Displacement of [125I]-labeled SP from human NK-1 receptor expressed in CHO cells at 1 uM relative to control; assay type: cell-based; details: filed as antagonist
[10] = Inhibition of Acinetobacter baumannii beta-lactamase OXA-143
[11] = Inhibition of Acinetobacter baumannii beta-lactamase OXA-235
[12] = Inhibition of Acinetobacter baumannii beta-lactamase OXA-24
[13] = Stability of the compound at pH 1 assessed as half-life; assay type: physicochemical; details: buffer
[14] = Oral bioavailability in human; assay type: ADME, organism-based; details: in vivo
CCRF-CEM = assay: Anticancer activity against human CCRF-CEM cells; assay type: functional, cell-based
Mus musculus [15] = species on record: Mus musculus; assay: Analgesic activity in mouse assessed as protection against phenylbenzoquinone-induced writhing; assay type: functional
[16] = target: Sodium-dependent dopamine transporter (Homo sapiens, UniProt Q01959); assay: Inhibition of dopamine transporter (unknown origin)
[17] = target: Sodium-dependent serotonin transporter (Homo sapiens, UniProt P31645); assay: Inhibition of SERT (unknown origin)
[18] = Stability of the compound at pH 7.4 aqueous phosphate buffer assessed as half-life; assay type: physicochemical
[19] = Antiplatelet activity in human platelet rich plasma assessed as platelet aggregation; assay type: functional, cell-free
[20] = Stability of the compound in 0.01 N HCL at pH 2.0 assessed as half-life; assay type: physicochemical
[21] = Half-life in iv dosed rat plasma; assay type: ADME, organism-based
[22] = Half-life in po dosed rat; assay type: ADME, organism-based; details: in vivo
Plasmodium falciparum = assay: Antiplasmodial activity against Plasmodium falciparum W2 assessed as inhibition of parasite growth; assay type: functional, organism-based
[23] = Oral bioavailability in mouse; assay type: ADME, organism-based; details: in vivo
[24] = Solubility of the compound at pH 7 incubated for 12 hrs by UPLC analysis; assay type: physicochemical; details: buffer, pH 7, 12 h
[25] = test system: Human immunodeficiency virus 1; assay: Selectivity index, ratio of EC50 for antiviral activity against HIV-1 G140S/Q148R mutant to EC50 for antiviral activity against wild-type HIV-1; assay type: functional
[26] = Half-life in human; assay type: ADME
PXR (NR1I2) = PXR (NR1I2) (Homo sapiens, UniProt O75469); assay: Activation of PXR (unknown origin) in human DPX2 cells assessed as maximal efficacy at 15 uM relative to control; assay type: cell-based
[27] = test system: Human immunodeficiency virus 1; assay: Antiviral activity against HIV1 infected in human MT4 cells assessed as inhibition of viral replication; assay type: functional, organism-based; details: Human immunodeficiency virus 1, MT4
[28] = Bioavailability in rat at 0.5 mg/kg, iv measured after 30 mins by LC-MS/MS analysis; assay type: ADME, organism-based; details: in vivo
[29] = Unbound fraction in human plasma; assay type: ADME, cell-free
[30] = Bioavailability in dog at 1 mg/kg, iv measured after 30 mins by LC-MS/MS analysis; assay type: ADME, organism-based, Canis lupus familiaris; details: in vivo
Cavia porcellus = assay: Antiinflammatory activity in po dosed substance P-induced guinea pig model of dermal inflammation; assay type: functional; details: read-out: ID50 (the source's name)
[31] = Dissociation constant, pKa of the compound; assay type: physicochemical
[32] = Inhibition of Calcium channel (unknown origin); design: species or system Homo sapiens
[33] = target: T1, Neutrophil elastase (Homo sapiens) (UniProt P08246); assay: Time-dependent inhibition of human leukocyte elastase assessed as observed binding constant
T1 sequence (whole entry): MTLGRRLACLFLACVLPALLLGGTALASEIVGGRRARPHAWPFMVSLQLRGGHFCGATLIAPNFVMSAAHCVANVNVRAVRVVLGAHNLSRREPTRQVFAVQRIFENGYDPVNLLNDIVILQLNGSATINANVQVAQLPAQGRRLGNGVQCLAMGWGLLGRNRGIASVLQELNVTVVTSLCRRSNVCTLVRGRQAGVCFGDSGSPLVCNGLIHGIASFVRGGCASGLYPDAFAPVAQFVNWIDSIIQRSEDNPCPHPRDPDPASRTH

[34] = Stability of the compound at pH 8 assessed as compound hydrolysis by measuring half-life; assay type: physicochemical; details: buffer
Hepatitis C virus = assay: Antiviral activity against Hepatitis C virus genotype 1a harboring NS5A Y93H mutant; assay type: functional, organism-based, Hepacivirus hominis
[35] = Oral bioavailability in dog; assay type: ADME, organism-based, Canis lupus familiaris; details: in vivo
[36] = Oral bioavailability in monkey; assay type: ADME, organism-based, Macaca mulatta; details: rhesus monkey, in vivo
[37] = Solubility of the compound at pH 7.4; assay type: physicochemical; details: buffer
[38] = target: Sterol O-acyltransferase 1 (Rattus norvegicus, UniProt O70536); assay: Inhibition of ACAT in rat
Chain of Sterol O-acyltransferase 1 (O70536 whole entry): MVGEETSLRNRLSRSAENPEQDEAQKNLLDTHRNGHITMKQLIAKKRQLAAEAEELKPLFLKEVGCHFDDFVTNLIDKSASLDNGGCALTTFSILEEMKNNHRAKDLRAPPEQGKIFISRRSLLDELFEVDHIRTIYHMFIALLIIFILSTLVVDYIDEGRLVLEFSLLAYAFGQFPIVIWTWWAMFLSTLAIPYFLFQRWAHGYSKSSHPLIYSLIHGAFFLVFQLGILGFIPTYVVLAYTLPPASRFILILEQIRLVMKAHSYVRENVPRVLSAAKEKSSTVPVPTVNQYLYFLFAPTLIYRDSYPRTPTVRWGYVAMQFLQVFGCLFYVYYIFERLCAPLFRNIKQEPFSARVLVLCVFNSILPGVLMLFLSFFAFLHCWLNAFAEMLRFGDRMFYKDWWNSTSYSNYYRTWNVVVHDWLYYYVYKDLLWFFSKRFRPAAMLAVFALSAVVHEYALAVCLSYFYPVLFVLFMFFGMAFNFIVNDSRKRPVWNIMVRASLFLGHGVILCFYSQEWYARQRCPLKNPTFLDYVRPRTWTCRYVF

Chain of Substance-P receptor (P25103 whole entry): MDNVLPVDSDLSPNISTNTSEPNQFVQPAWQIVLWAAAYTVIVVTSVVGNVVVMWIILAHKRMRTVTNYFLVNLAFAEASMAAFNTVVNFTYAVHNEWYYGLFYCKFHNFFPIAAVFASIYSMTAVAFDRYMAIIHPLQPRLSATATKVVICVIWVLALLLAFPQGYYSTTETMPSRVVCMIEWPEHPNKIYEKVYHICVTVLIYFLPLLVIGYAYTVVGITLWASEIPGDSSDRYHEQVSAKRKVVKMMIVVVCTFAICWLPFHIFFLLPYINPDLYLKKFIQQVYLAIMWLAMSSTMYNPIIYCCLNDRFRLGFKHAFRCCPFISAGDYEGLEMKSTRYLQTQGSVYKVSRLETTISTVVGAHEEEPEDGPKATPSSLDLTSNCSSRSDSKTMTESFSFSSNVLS
Chain of PXR (NR1I2) (O75469 whole entry): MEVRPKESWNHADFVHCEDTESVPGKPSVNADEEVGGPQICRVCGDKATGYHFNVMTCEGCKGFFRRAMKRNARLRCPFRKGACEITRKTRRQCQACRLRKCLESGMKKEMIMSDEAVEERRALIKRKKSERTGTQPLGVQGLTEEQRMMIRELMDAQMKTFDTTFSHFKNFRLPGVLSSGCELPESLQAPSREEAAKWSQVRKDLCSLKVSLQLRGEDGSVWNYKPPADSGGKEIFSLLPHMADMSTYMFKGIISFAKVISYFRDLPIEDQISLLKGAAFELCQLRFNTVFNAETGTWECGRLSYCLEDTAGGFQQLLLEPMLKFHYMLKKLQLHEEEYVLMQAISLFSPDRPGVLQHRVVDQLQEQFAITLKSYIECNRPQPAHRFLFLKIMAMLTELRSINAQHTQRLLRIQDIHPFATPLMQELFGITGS
Chain of Sodium-dependent dopamine transporter (Q01959 whole entry): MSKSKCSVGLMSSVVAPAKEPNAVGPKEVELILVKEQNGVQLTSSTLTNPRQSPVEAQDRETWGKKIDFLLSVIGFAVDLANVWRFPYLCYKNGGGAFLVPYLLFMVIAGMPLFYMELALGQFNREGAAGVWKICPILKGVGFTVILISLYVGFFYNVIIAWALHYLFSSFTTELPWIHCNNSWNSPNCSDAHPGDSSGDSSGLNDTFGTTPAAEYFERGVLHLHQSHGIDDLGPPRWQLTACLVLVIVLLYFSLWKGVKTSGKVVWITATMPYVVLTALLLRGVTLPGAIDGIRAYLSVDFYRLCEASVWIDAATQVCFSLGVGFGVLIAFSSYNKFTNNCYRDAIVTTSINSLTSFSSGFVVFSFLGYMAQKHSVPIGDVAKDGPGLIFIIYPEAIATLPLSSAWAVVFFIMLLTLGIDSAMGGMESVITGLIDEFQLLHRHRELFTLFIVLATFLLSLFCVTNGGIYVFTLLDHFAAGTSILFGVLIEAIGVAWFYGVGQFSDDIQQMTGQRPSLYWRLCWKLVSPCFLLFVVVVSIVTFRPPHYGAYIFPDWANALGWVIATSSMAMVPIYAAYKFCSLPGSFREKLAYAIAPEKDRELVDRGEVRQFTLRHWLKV
Chain of Sodium-dependent serotonin transporter (P31645 whole entry): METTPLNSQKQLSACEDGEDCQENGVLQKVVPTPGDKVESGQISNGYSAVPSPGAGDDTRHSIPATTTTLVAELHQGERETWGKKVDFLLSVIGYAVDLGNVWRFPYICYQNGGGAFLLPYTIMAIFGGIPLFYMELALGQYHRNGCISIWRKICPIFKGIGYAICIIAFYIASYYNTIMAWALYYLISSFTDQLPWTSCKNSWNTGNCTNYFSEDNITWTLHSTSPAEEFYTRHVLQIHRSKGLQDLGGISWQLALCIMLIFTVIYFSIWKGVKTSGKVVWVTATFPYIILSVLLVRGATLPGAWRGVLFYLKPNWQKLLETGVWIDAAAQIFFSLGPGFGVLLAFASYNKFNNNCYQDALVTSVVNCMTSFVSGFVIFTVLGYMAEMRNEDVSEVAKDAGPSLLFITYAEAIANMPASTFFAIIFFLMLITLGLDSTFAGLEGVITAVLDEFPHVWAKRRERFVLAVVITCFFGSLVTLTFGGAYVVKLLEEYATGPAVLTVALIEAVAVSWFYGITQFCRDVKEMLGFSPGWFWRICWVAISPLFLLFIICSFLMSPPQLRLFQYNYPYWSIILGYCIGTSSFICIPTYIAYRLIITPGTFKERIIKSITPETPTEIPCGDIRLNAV
Chain of Hepatitis C virus serine protease, NS3/NS4A (D2K2A8 whole entry): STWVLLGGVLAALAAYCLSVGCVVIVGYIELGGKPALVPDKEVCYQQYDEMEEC
Chain of Hepatitis C virus serine protease, NS3/NS4A (A3EZI9 whole entry): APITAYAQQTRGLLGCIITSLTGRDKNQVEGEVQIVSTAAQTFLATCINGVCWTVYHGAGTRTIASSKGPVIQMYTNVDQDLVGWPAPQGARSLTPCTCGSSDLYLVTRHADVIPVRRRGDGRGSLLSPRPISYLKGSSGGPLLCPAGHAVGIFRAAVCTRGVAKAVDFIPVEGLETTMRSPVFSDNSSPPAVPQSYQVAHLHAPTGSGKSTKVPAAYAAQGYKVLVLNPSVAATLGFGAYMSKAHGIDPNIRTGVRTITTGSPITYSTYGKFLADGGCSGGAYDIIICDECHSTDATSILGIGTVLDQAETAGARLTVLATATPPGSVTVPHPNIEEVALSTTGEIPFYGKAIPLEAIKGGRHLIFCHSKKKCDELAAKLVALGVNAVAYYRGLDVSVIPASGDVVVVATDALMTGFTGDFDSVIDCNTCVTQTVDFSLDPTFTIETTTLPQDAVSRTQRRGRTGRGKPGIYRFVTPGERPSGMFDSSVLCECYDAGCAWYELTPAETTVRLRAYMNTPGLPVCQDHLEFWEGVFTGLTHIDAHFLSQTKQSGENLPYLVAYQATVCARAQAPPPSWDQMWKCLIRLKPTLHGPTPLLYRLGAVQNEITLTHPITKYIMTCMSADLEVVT

O=c1[nH]cnc2c1ncn2[C@@H]1O[C@H](CO)C[C@@H]1F
half-life [1]: > 1 min

CCC[C@H](NC(=O)[C@@H]1[C@H]2O[C@H]3CCCOc4cccc(c4)CC(=O)N[C@@H](C4CCCCC4)CN1C[C@@H]2O3)C(=O)C(=O)NCC(=O)N[C@H](C(=O)O)c1ccccc1
Ki [2]: 38 nM

Cc1cc(C)n(CCC[C@H]2CO[C@@H](c3nc(-c4ccccc4)c(-c4ccccc4)[nH]3)OC2)n1
concentration at 1.5 h [3]: 1300 nM

C[C@]1(NC(=O)N2CCOCC2)CO[C@H](c2nc(-c3ccncc3)c(-c3ccc(F)cc3)[nH]2)OC1
IC50 (MAP kinase p38): 50 nM
bioavailability [4]: 50%
ED50 (Mus musculus [5]): < 10 mg/kg

CO[C@@]1(C(F)(F)F)O[C@@H]2O[C@@]3(C)CC[C@H]4[C@H](C)CC[C@@H]([C@H]1C)[C@@]24OO3
ED50 [6]: 3.4 µmol/kg
half-life [7]: 660 h

Nc1ccn([C@@H]2CS[C@H](CO)O2)c(=O)n1 [LAMIVUDINE]
IC50 [8]: 870 nM
EC50 [9]: 2000 nM

Fc1ccc([C@@H]2NCCO[C@]23CC[C@@H](c2ccccc2C(F)(F)F)CO3)cc1
Activity (Substance-P receptor): 47%

Nc1ncnc2c1ncn2[C@@H]1O[C@H](CO)C[C@H]1F
half-life [1]: > 1 min

C[C@]1(Cn2ccnn2)[C@H](C(=O)O)N2C(=O)C[C@H]2S1(=O)=O [TAZOBACTAM]
IC50 [10]: 5900 nM
IC50 [11]: 4880 nM
IC50 [12]: 27900 nM

CCC[C@H](NC(=O)[C@@H]1[C@H]2O[C@H]3CCCOc4cccc(c4)CC(=O)N[C@@H](C4CCCCC4)CN1C[C@@H]2O3)C(=O)C(=O)NCC(=O)N[C@H](C(=O)OC(C)(C)C)c1ccccc1
Ki [2]: 38 nM

Nc1ccn([C@H]2CS[C@@H](CO)O2)c(=O)n1
IC50 [8]: 1220 nM
EC50 [9]: 200 nM

O=c1ccn([C@H]2C=C[C@@H](CO)O2)c(=O)[nH]1
half-life [13]: 15 h

Nc1nc(Cl)nc2c1ncn2[C@@H]1O[C@H](CO)[C@@H](O)[C@@H]1F [CLOFARABINE]
bioavailability [14]: 57%
IC50 (CCRF-CEM): 60 nM

Nc1ncnc2c1ncn2[C@@H]1O[C@H](CO)C[C@@H]1F [LODENOSINE]
half-life [1]: > 1 min

c1ccc([C@@]23OC[C@@H](CCn4c2nc2ccccc24)O3)cc1
ED50 (Mus musculus [15]): 100 mg/kg

COC(=O)[C@H]1[C@@H](c2ccc(Cl)c(Cl)c2)C[C@@H]2CC[C@H]1N2C
IC50 [16]: 1.1 nM
IC50 [17]: 2 nM

Nc1ccn([C@H]2C=C[C@@H](CO)O2)c(=O)n1
half-life [13]: 0.2 h

CCCCC[C@H](O)/C=C/[C@H]1O[C@@H]2O[C@H]([C@@H]1C/C=C\CCCC(=O)O)C2(F)F
half-life [18]: 322 days
EC50 [19]: 36 nM

C[C@H]1[C@@H](O)O[C@@H]2O[C@@]3(C)CC[C@H]4[C@H](C)CC[C@@H]1[C@@]24OO3 [ARTENIMOL]
half-life [20]: 17 h
half-life [21]: 0.383 h
half-life [22]: 0.5 h
IC50 (Plasmodium falciparum): 0.45 nM
half-life [7]: 17 h
bioavailability [23]: 1.4%

C[C@@H]1CC[C@H]2[C@@H](C)[C@](O)(C(F)(F)F)O[C@@H]3O[C@@]4(C)CC[C@@H]1[C@]32OO4
half-life [21]: 1.43 h
IC50 (Plasmodium falciparum): 2.6 nM
half-life [7]: 760 h
bioavailability [23]: 28%

O=C(NCc1c(F)cc(F)cc1F)c1cn2c(c(O)c1=O)C(=O)N1[C@H]3CC[C@H](C3)O[C@@H]1C2 [BICTEGRAVIR]
solubility [24]: 119 µg/mL (≈ 0.265 mM)
Ratio EC50 [25]: 2
half-life [26]: 19 h
Emax at 15 µM (PXR (NR1I2)): 18%
EC50 [27]: 1.9 nM
bioavailability [28]: 50%
Fu [29]: 0.3%
bioavailability [30]: 28%

O=c1[nH]nc(CN2CCC[C@H](OCc3cc(C(F)(F)F)cc(C(F)(F)F)c3)[C@@H]2c2ccccc2)[nH]1
ED50 (Cavia porcellus): 0.037 mg/kg
pKa [31]: 5.3
IC50 [32]: 13000 nM

CC[C@@H]1C(=O)N(C(=O)NCc2ccccc2)[C@H]1Oc1ccc(C(=O)O)cc1
K [33]: 2 10^3/M/s
half-life [34]: > 80 h

C[C@]1(NC(=O)c2ccccc2)CO[C@H](c2nc(-c3ccncc3)c(-c3ccc(F)cc3)[nH]2)OC1
IC50 (MAP kinase p38): 44 nM
bioavailability [4]: 64%
ED50 (Mus musculus [5]): 10 mg/kg

COC(=O)N[C@H](C(=O)N1CCC[C@H]1c1nc(-c2ccc3c(c2)O[C@@H](c2ccccc2)n2c-3cc3cc(-c4c[nH]c([C@@H]5CCCN5C(=O)[C@@H](NC(=O)OC)C(C)C)n4)ccc32)c[nH]1)C(C)C [ELBASVIR]
EC50 (Hepatitis C virus): 2.4 nM
bioavailability [14]: 32%
bioavailability [4]: 9%
bioavailability [35]: 35%
bioavailability [36]: 17%

Nc1nc2c(ncn2COCCO)c(=O)[nH]1 [ACYCLOVIR]
solubility [37]: 2500 µg/mL (≈ 11.1 mM)

c1ccc(-c2nc([C@H]3OC[C@@H](CCCCN4CCSCC4)CO3)[nH]c2-c2ccccc2)cc1
concentration at 1.5 h [3]: 2200 nM

Nc1nc(O)c2ncn(COC(CO)CO)c2n1 [GANCICLOVIR]
solubility [37]: 2000 µg/mL (≈ 7.84 mM)

COC(=O)[C@H]1[C@@H](c2ccc(Cl)c(Cl)c2)C[C@@H]2CC[C@H]1O2
IC50 [16]: 3.27 nM
IC50 [17]: 4.67 nM

c1ccc(-c2nc(C3OCCCO3)[nH]c2-c2ccccc2)cc1
IC50 [38]: 110 nM

Fc1ccc([C@@H]2NCCO[C@@]23CC[C@H](c2ccccc2C(F)(F)F)CO3)cc1
Activity (Substance-P receptor): 44%

CC[C@@H]1C(=O)N(C(C)=O)[C@H]1Oc1ccc(C(=O)O)cc1
K [33]: 6.7 10^3/M/s
half-life [34]: 8.6 h

CC(C)(N)CNC(=O)CC1CCC2(CC1)OOC1(O2)C2CC3CC(C2)CC1C3 (stereo not given)
half-life [22]: 1 h
bioavailability [4]: 35%

C[C@@H]1CCO[C@H]2Cn3cc(C(=O)NCc4ccc(F)cc4F)c(=O)c(O)c3C(=O)N12 [DOLUTEGRAVIR]
solubility [24]: 53 µg/mL (≈ 0.126 mM)
Ratio EC50 [25]: 4.8
half-life [26]: 14 h
Emax at 15 µM (PXR (NR1I2)): 51%
EC50 [27]: 1.7 nM
bioavailability [28]: 52%
Fu [29]: 0.7%
bioavailability [30]: 17%

CC[C@@H]1C(=O)N(C(C)=O)[C@H]1OC(C)=O (racemic)
K [33]: 4 10^3/M/s
half-life [34]: 2.4 h

O=c1[nH]nc(CN2CCO[C@H](OCc3cc(C(F)(F)F)cc(C(F)(F)F)c3)[C@@H]2c2ccccc2)[nH]1
ED50 (Cavia porcellus): 0.009 mg/kg
pKa [31]: < 3
IC50 [32]: 12000 nM

Cc1cc(C)n(CCCC[C@H]2CO[C@@H](c3nc(-c4ccccc4)c(-c4ccccc4)[nH]3)OC2)n1
IC50 [38]: 75 nM

Cc1cn([C@H]2C=C[C@@H](CO)O2)c(=O)[nH]c1=O [STAVUDINE]
half-life [13]: 26 h
